Test results from patent US20090117653A1 (Governors of the University of Alberta, priority 2007, published 2009).

Key:
Type in all cases: cell-based, human
[1] = tested on: clonotypic MM cells in rBM (MM BMC); assay: Reduction of clonal cells in 3-D rBM culture, RQ-PCR with patient specific primers; settings: rBM grown 14 days, single treatment 7 days, 7 days recovery
Protocol: (§1) For preclinical studies, the rBM was grown for 14 days to allow for stratification of the culture and expansion of the malignant cells and the stromal layer. A single treatment of either melphalan or bortezomib was administered in a fresh aliquot of Growth Medium overlaid on top of the 3-D culture. After 7 days of treatment, fresh medium was added and cells were allowed to recover for an additional period of 7 days, after which cells were isolated using the Cell Recovery Solution and the effects of treatment were analyzed, and for CFU activity of drug resistant LRC.
For real-time quantitative PCR (RQ-PCR), total genomic DNA was isolated with TRIzol™ reagent (Invitrogen, Burlington, ON) per manufacturer's instructions. […] Controls included cloned VDJ sequences for each patient used to generate a standard curve for the specific clonotypic sequence and comparison with a standard curve for a housekeeping gene, β2 microglobulin (normalized to the two copies of B2M templates/cell), to quantify the number of templates in unknown samples before and after 3-D culture. […]
FIG. 4a illustrates the reduction of the clonal cells as measured by RQ-PCR with patient specific primers (melphalan p=0.016, bortezomib p=0.39). […] Treatment of rBM with melphalan led to a 60% decrease in the number of clonotypic cells as measured by RQ-PCR.

[2] = tested on: rBM cells (MM BMC); CD138+/CD56+ population; assay: Apoptosis within rBM by flow cytometry measuring AnnexinV reactivity
Protocol: as §1
For flow cytometry, cells were isolated from 3-D cultures with Cell Recovery Solution, stained with various FITC tagged CD antigens or Annexin V-PE and analyzed by flow cytometry to measure the extent of proliferation and apoptosis using a FACSort flow cytometer (BD, Oakville, ON). Data was analyzed with CellQuest Pro software.
FIGS. 4a-d illustrate a comparative evaluation of two MM therapeutics in a 3-D BM cell culture assembly in accordance with various embodiments. […]
FIG. 4b illustrates apoptosis within rBM as assessed by flow cytometry measuring AnnexinV reactivity post treatment with melphalan (left panel) or bortezomib (middle panel). MM specific cell killing by bortezomib was monitored in the CD138+/CD56+ population by AnnexinV reactivity (right panel).

[3] = tested on: stromal compartment of rBM; settings: brightfield microscopy; TRAP, Oil Red, ALP staining at rEnd; FIG. 4c, 4d
Protocol: as §1
For microscopy, confocal z-slices were imaged on a Carl Zeiss confocal LSM 510 microscope equipped with appropriate filters and the 3D reconstruction was done using Zeiss 510 image analysis software. Quantification of LRC positioning was performed with Imaris 3.2.2 software, Bitplane AG (Zurich, Switzerland). Stromal cells were stained with TRAP, Oil Red, Alkaline phosphatase, or Alizarin Red according to the manufacturer's instructions and imaged on Zeiss Axioskop digital microscope. For fibronectin, phalloidin and N-cadherin staining, cells were fixed with 1% neutral buffered formalin for 10 min at RT, permeabilized with 0.5% Triton X-100 and non-specific binding was blocked with 1% BSA for 1 hr at RT. […]

LRCs (putative MM-CSC) = assay: Persistence of label retaining cells (LRC) in melphalan treated 3-D cultures of mobilized blood cells, CFSE flow cytometry; settings: mobilized blood mononuclear cells, 14 days in 3-D, then treated
Protocol: In the embodiments illustrated in FIGS. 1-7, 3-D cell culture and other techniques were performed. BMC were isolated from BM aspirates by Ficoll-Paque gradient centrifugation per manufacturer's instructions. Surface coating (rEnd) was created by incubating tissue culture plates with fibronectin/collagen I (1:1) in PBS at a final concentration of 5 μg/1 cm^2 of each protein. Plates were incubated for <30 min at room temperature (RT) and the remaining fluid was removed and was replaced with the rBM layer consisting of the BMC cells in an ECM mixture of Matrigel™/fibronectin (2:1 v/v). For analysis of proliferation and LRCs, cells were labeled with 0.25 μM CFSE for 15 min at 40° C. […]
For CFU assays, CFSE labeled cells were isolated from the 3-D culture and the CFSE+ cells were sorted on an EPICS ALTRA cell sorter, by gating on the live cells based on the forward and side scatter and on the CFSE+ population based on fluorescence intensity in the FL1 channel (see FIG. 6a, below). […] The MethoCult™ cultures were incubated for 14 days and the resulting colonies were counted. […]
FIG. 6a illustrates the flow cytometry profile of the LRCs. The gate for sorting was set to isolate CFSE-high cells and the percentage of LRCs was calculated as the percent of CFSE-high cells in the live cell fraction of the 3-D culture.

SMILES	reduction in clonotypic cells (in words) ([1]; FIG. 4a, p=0.39)	apoptosis in CD138+CD56+ PC population (AnnexinV reactivity) ([2]; CD138+/CD56+ population, FIG. 4b right panel)	decrease in the number of clonotypic cells as measured by RQ-PCR ([1]; p=0.016) [%]	apoptosis in rBM (AnnexinV reactivity) ([2]; overall rBM, post treatment, FIG. 4b, 4c)	effect on stromal compartment of rBM [3]	depletion in 3-D of other hematopoietic cells (LRCs (putative MM-CSC)) [%]	enrichment of LRCs in treated 3-D cultures (LRCs (putative MM-CSC); CFSE labeled, FIG. 6a) [%]
CC(C)C[C@H](NC(=O)[C@H](Cc1ccccc1)NC(=O)c1cnccn1)B(O)O [bortezomib]	neither a significant reduction in clonotypic cells	the only cell population subject to bortezomib induced apoptosis	–	–	–	–	–
N[C@@H](Cc1ccc(N(CCCl)CCCl)cc1)C(=O)O [melphalan]	–	–	60	induced apoptosis of all cell types within the hematopoietic hierarchy	remained intact	≥ 50	50
